Where two headings read alike, the source gives them in different places.
Legend:
[1] = molecular target: T1, glutathione-S-transferase (GST) tagged LXRbeta LBD (ligand binding domain) (Homo sapiens, UniProt P55055); assay: LanthaScreen TR-FRET Liver X Receptor Coactivator Assay, LXR beta; type: biochemical; conditions: for Emax: read-out: LXR beta actiivty at max dose (%); for EC50: potency (Inflection Point) of compound-induced co-activator recruitment, TR-FRET
T1 construct: purchased Invitrogen pv4658.pps
T1 sequence (P55055 222-460 limits assumed): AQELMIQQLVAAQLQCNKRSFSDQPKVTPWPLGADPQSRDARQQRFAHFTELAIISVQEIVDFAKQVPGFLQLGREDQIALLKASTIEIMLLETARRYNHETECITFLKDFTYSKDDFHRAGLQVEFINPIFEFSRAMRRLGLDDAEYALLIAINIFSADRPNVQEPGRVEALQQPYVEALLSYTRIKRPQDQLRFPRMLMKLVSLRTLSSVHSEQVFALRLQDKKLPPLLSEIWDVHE
Procedure: (§1) While running the LanthaScreen™ TR-FRET Liver X Receptor Coactivator Assay, LXR alpha-LBD or LXR beta-LBD was added to ligand test compounds followed by addition of a mixture of a fluorescein-labelled coactivator peptide and terbium-conjugated anti-GST antibody. After an incubation period at room temperature, TR-FRET (time-resolved fluorescence resonance energy transfer) was measured using a filter-based instrument capable of TR-FRET, e.g. PerkinElmer Envision.

[2] = molecular target: T2, glutathione-S-transferase (GST) tagged LXRalpha LBD (ligand binding domain) (Homo sapiens, UniProt Q13133); assay: LanthaScreen TR-FRET Liver X Receptor Coactivator Assay, LXR alpha; type: biochemical; conditions: for Emax: read-out: LXR alpha actiivty at max dose (%); for EC50 / LXR alpha IP (nM): potency (Inflection Point) of compound-induced co-activator recruitment, TR-FRET
T2 construct: purchased Invitrogen pv4655
T2 sequence (Q13133 209-447 limits assumed): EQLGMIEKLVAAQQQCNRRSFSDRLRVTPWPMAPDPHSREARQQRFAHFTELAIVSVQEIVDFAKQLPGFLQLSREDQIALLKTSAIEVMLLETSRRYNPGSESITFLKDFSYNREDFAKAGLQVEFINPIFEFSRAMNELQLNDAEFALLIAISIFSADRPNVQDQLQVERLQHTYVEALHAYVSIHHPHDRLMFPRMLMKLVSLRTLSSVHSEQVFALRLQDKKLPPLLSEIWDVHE
Procedure: as §1

[3] = efficacy (Emax) in relation to reference dual agonist T0901317

| Emax [1, 3] [%] | EC50 ([1]; read-out: LXR beta IP) [nM] | Emax [2, 3] [%] | EC50 ([2]; read-out: LXR alpha IP) [nM] | Structure (SMILES) | LXR alpha IP (nM) [2] | EC50 ([1]; LXR beta IP (nM)) [nM] | Emax [1] [%] | EC50 ([2]; LXR alpha IP (nM)) [nM] | Emax [2] [%] |
| --- | --- | --- | --- | --- | --- | --- | --- | --- | --- |
| 103 | 59 | 28 | 683 | CN(C)C(=O)c1ccc(N(C)CCC[C@@H]2CC23CCN(C(=O)[C@](O)(c2ccccc2)C(F)(F)F)CC3)cc1Cl (single isomer, unassigned) [Example 7-1, 2-chloro-N,N-dimethyl-4-(methyl(3-((R or S)-6-((R or S)-3,3,3-trifluoro-2-hydroxy-2-phenylpropanoyl)-6-azaspiro[2.5]octan-1-yl)propyl)amino)benzamide] |  |  |  |  |  |
| 91 | 9 | 65 | 829 | CNC(=O)c1ccc(NCCC[C@@H]2CC23CCN(C(=O)[C@@](O)(C(C)C)C(F)(F)F)CC3)cc1Cl (single isomer, unassigned) [Example 6-8, 2-chloro-4-(3-((R or S)-6-((S or R)-2-hydroxy-3-methyl-2-(trifluoromethyl)butanoyl)-6-azaspiro[2.5]octan-1-yl)propylamino)-N-methylbenzamide] |  |  |  |  |  |
| 24 | 49 | 19 | 2150 | CN(C)C(=O)c1c(F)cc(NCCC[C@H]2CC23CCN(C(=O)[C@](O)(c2ccccc2)C(F)(F)F)CC3)cc1F (single isomer, unassigned) [Example 6-5, 2,6-difluoro-N,N-dimethyl-4-(3-((S or R)-6-((R or S)-3,3,3-trifluoro-2-hydroxy-2-phenylpropanoyl)-6-azaspiro[2.5]octan-1-yl)propylamino)benzamide] |  |  |  |  |  |
| 75 | 16 | 22 | 516 | COc1cccc(C(O)(C(=O)N2CCC(CCCCCc3ccc(C(=O)N(C)C)c(Cl)c3)CC2)C(F)(F)F)c1 (single isomer, unassigned) [Example 15-5, (R or S)-2-chloro-N,N-dimethyl-4-(5-(1-(3,3,3-trifluoro-2-hydroxy-2-(3-methoxyphenyl)propanoyl)piperidin-4-yl)pentyl)benzamide] |  |  |  |  |  |
| 41 | 106 | 14 | 1970 | CN(C)C(=O)c1ccc(NCCCCC2CCN(C(=O)OCc3ccccc3)CC2)cc1Cl [Example 1-14, benzyl 4-(4-(3-chloro-4-(dimethylcarbamoyl)phenylamino)butyl)piperidine-1-carboxylate] |  |  |  |  |  |
| 29 | 3 | 0 |  | CNC(=O)c1ccc(NCCCCC2CCN(C(=O)C(O)(c3cc(Cl)cc(Cl)c3)C(F)(F)F)CC2)cc1Cl (single isomer, unassigned) [Example 1-11, (R or S)-2-chloro-4-(4-(1-(2-(3,5-dichlorophenyl)-3,3,3-trifluoro-2-hydroxypropanoyl)piperidin-4-yl)butylamino)-N-methylbenzamide] | No IP |  |  |  |  |
|  |  |  |  | CN(C)C(=O)c1ccc(CCCC2CCN(C(=O)C(O)(c3ccccc3)C(F)(F)F)CC2)cc1Cl (single isomer, unassigned) [Example 15-1, (R or S)-2-chloro-N,N-dimethyl-4-(3-(1-(3,3,3-trifluoro-2-hydroxy-2-phenylpropanoyl)piperidin-4-yl)propyl)benzamide] |  | 46 | 41 | 1310 | 19 |
| 93 | 6 | 40 | 327 | CNC(=O)c1ccc(CCCCCC2CCN(C(=O)C(O)(c3ccccc3)C(F)(F)F)CC2)cc1Cl (single isomer, unassigned) [Example 15-7, (R or S)-2-chloro-N-methyl-4-(5-(1-(3,3,3-trifluoro-2-hydroxy-2-phenylpropanoyl)piperidin-4-yl)pentyl)benzamide] |  |  |  |  |  |
| 18 | 34 | 6 |  | O=C(c1ccc(NCCC[C@@H]2CC23CCN(C(=O)[C@](O)(c2ccccc2)C(F)(F)F)CC3)cc1Cl)N1CCCC1 (single isomer, unassigned) [Example 6-4, (R or S)-1-((R or S)-1-(3-(3-chloro-4-(pyrrolidine-1-carbonyl)phenylamino)propyl)-6-azaspiro[2.5]octan-6-yl)-3,3,3-trifluoro-2-hydroxy-2-phenylpropan-1-one] | No IP |  |  |  |  |
| 75 | 9 | 38 | 481 | CNC(=O)c1ccc(NCCCCC2CCN(C(=O)C(O)(c3ccccc3)C(F)(F)F)CC2)cc1Cl (single isomer, unassigned) [Example 1-3, (R or S)-2-chloro-N-methyl-4-(4-(1-(3,3,3-trifluoro-2-hydroxy-2-phenylpropanoyl)piperidin-4-yl)butylamino)benzamide] |  |  |  |  |  |
| 63 | 102 | 16 | 3300 | CNC(=O)c1ccc(NCCCCC2CCN(C(=O)C(O)(c3cccc(OC)c3)C(F)(F)F)CC2)cc1F (single isomer, unassigned) [Example 1-6, (R or S)-2-fluoro-N-methyl-4-(4-(1-(3,3,3-trifluoro-2-hydroxy-2-(3-methoxyphenyl)propanoyl)piperidin-4-yl)butylamino)benzamide] |  |  |  |  |  |
| 82 | 27 | 46 | 855 | CN(C)C(=O)c1ccc(NCCCC2CCN(S(=O)(=O)c3c(Cl)cccc3Cl)CC2)cc1Cl [Example 1-12, 2-chloro-4-(3-(1-(2,6-dichlorophenylsulfonyl)piperidin-4-yl)propylamino)-N,N-dimethylbenzamide] |  |  |  |  |  |
| 96 | 6 | 27 | 381 | CNC(=O)c1ccc(CCCCCC2CCN(C(=O)C(O)(c3cccc(OC)c3)C(F)(F)F)CC2)cc1Cl (single isomer, unassigned) [Example 15-6, (R or S)-2-chloro-N-methyl-4-(5-(1-(3,3,3-trifluoro-2-hydroxy-2-(3-methoxyphenyl)propanoyl)piperidin-4-yl)pentyl)benzamide] |  |  |  |  |  |
| 68 | 14 | 19 | 2090 | CNC(=O)c1ccc(NCCCCC2CCN(C(=O)C(O)(c3cccc(OC(C)C)c3)C(F)(F)F)CC2)cc1Cl (single isomer, unassigned) [Example 1-10, (S or R)-2-chloro-N-methyl-4-(4-(1-(3,3,3-trifluoro-2-hydroxy-2-(3-isopropoxyphenyl)propanoyl)piperidin-4-yl)butylamino)benzamide] |  |  |  |  |  |
| 103 | 32 | 39 | 463 | CN(C)C(=O)c1ccc(CCCCC2CCN(C(=O)C(C)(C)c3ccccc3)CC2)cc1Cl [Example 15-4, 2-chloro-N,N-dimethyl-4-(4-(1-(2-methyl-2-phenylpropanoyl)piperidin-4-yl)butyl)benzamide] |  |  |  |  |  |

| Structure (SMILES) | Emax [1, 3] [%] | EC50 ([1]; read-out: LXR beta IP) [nM] | Emax [2, 3] [%] | EC50 ([2]; read-out: LXR alpha IP) [nM] | LXR alpha IP (nM) [2] | EC50 ([1]; LXR beta IP (nM)) [nM] | Emax [1] [%] | EC50 ([2]; LXR alpha IP (nM)) [nM] | Emax [2] [%] |
| --- | --- | --- | --- | --- | --- | --- | --- | --- | --- |
| COc1cccc([C@@](O)(C(=O)N2CCC(CC3CC(Nc4ccc(C(=O)N(C)C)c(Cl)c4)C3)CC2)C(F)(F)F)c1 (single isomer, unassigned) [Example 11-1, 2-chloro-N,N-dimethyl-4-((1R,3s)-3-((1-((R or S)-3,3,3-trifluoro-2-hydroxy-2-(3-methoxyphenyl)propanoyl)piperidin-4-yl)methyl)cyclobutylamino)benzamide] |  | 8 |  |  | No IP |  | 85 |  | 12 |
| CN(C)C(=O)c1ccc(NCCC2CC23CCN(C(=O)C2(c4ccccc4)CCCC2)CC3)cc1Cl (single isomer, unassigned) [Example 8-1, (S or R)-2-chloro-N,N-dimethyl-4-(2-(6-(1-phenylcyclopentanecarbonyl)-6-azaspiro[2.5]octan-1-yl)ethylamino)benzamide] |  |  | 0 |  | No IP | 7 | 21 |  |  |
| CNC(=O)c1ccc(NCCCCC2CCN(C(=O)C(O)(c3cccc(OC)c3)C(F)(F)F)CC2)cc1Cl (single isomer, unassigned) [Example 1-1, (R or S)-2-chloro-N-methyl-4-(4-(1-(3,3,3-trifluoro-2-hydroxy-2-(3-methoxyphenyl)propanoyl)piperidin-4-yl)butylamino)benzamide] | 68 | 8 |  |  |  |  |  | 577 | 17 |

From patent US10894775B2, “Piperidine derivatives as liver X receptor beta agonists, compositions, and their use” (Merck Sharp & Dohme Corp., priority 2016, dated 2021)
